The source of these data is patent publication US20240002391A1, “4-ALKOXYPYRROLO[2,1-F][1,2,4]TRIAZINES AND PREPARATION AND USES THEREOF” (BioSplice Therapeutics, Inc., priority 2022, published 2024).

In this assay the target is recombinant DYRK1A kinase (Homo sapiens (Human), UniProt Q13627). Briefly: DYRK1A kinase assay (Ser/Thr 18 peptide Z-lyte FRET). Format: biochemical. The note with it: DYRK1A kinase activity, Z-lyte Ser/Thr 18 peptide, 15 μM ATP; method text calls the value IC50; read-out: EC50 (the source's name). The method, boiled down:
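IC50 from non-linear fits of percent phosphorylation, derived from coumarin/fluorescein emission ratio after 1 h protease development. Kinase reaction: 1 h room temperature, 15 μM ATP, 4 μM Ser/Thr peptide 18, 0.25 μg/mL recombinant DYRK1A, duplicate 11-point 1:3 dilutions from 10 μM.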
`COc1nc(N[C@H]2CC[C@@](C)(O)CC2)nn2ccc(-c3ccc4nnn(CC(F)F)c4c3)c12` [Compound 724, (1s,4s)-4-((5-(1-(2,2-Difluoroethyl)-1H-benzo[d][1,2,3]triazol-6-yl)-4-methoxypyrrolo[2,1-f][1,2,4]triazin-2-yl)amino)-1-methylcyclohexan-1-ol]: the IC50 is 1.1 nM.
Next, `COc1nc(N[C@H]2CC[C@](C)(O)CC2)nn2ccc(-c3ccc4nnn(CC(F)F)c4c3)c12` [Compound 725, (1r,4r)-4-((5-(1-(2,2-difluoroethyl)-1H-benzo[d][1,2,3]triazol-6-yl)-4-methoxypyrrolo[2,1-f][1,2,4]triazin-2-yl)amino)-1-methylcyclohexan-1-ol]: 0.6 nM; `CC[C@]1(O)CC[C@@H](Nc2nc(OC)c3c(-c4ccc5nnn(CC(F)F)c5c4)ccn3n2)CC1` [Compound 726, (1s,4s)-4-((5-(1-(2,2-Difluoroethyl)-1H-benzo[d][1,2,3]triazol-6-yl)-4-methoxypyrrolo[2,1-f][1,2,4]triazin-2-yl)amino)-1-ethylcyclohexan-1-ol]: 1.8 nM.
As for `CC[C@]1(O)CC[C@H](Nc2nc(OC)c3c(-c4ccc5nnn(CC(F)F)c5c4)ccn3n2)CC1` [Compound 727, (1r,4r)-4-((5-(1-(2,2-Difluoroethyl)-1H-benzo[d][1,2,3]triazol-6-yl)-4-methoxypyrrolo[2,1-f][1,2,4]triazin-2-yl)amino)-1-ethylcyclohexan-1-ol], the figure is 2.8 nM; as for `COc1nc(N[C@@H]2CN(C)C[C@@H]2F)nn2ccc(-c3ccc4nnn(CC(F)F)c4c3)c12` [Compound 730, 5-(1-(2,2-Difluoroethyl)-1H-benzo[d][1,2,3]triazol-6-yl)-N-((3R,4S)-4-fluoro-1-methylpyrrolidin-3-yl)-4-methoxypyrrolo[2,1-f][1,2,4]triazin-2-amine], 4.6 nM.
Next, `CCN1C[C@H](F)[C@H](Nc2nc(OC)c3c(-c4ccc5nnn(CC(F)F)c5c4)ccn3n2)C1` [Compound 732, 5-(1-(2,2-Difluoroethyl)-1H-benzo[d][1,2,3]triazol-6-yl)-N-((3R,4S)-1-ethyl-4-fluoropyrrolidin-3-yl)-4-methoxypyrrolo[2,1-f][1,2,4]triazin-2-amine]: 1 nM; `COc1nc(N[C@@H]2CN(C(C)=O)C[C@@H]2F)nn2ccc(-c3ccc4nnn(CC(F)F)c4c3)c12` [Compound 734, 1-((3R,4S)-3-((5-(1-(2,2-Difluoroethyl)-1H-benzo[d][1,2,3]triazol-6-yl)-4-methoxypyrrolo[2,1-f][1,2,4]triazin-2-yl)amino)-4-fluoropyrrolidin-1-yl)ethan-1-one]: 0.8 nM; `COc1nc(N[C@@H]2CN(C3COC3)C[C@@H]2F)nn2ccc(-c3ccc4nnn(CC(F)F)c4c3)c12` [Compound 739, 5-(1-(2,2-Difluoroethyl)-1H-benzo[d][1,2,3]triazol-6-yl)-N-((3R,4S)-4-fluoro-1-(oxetan-3-yl)pyrrolidin-3-yl)-4-methoxypyrrolo[2,1-f][1,2,4]triazin-2-amine]: 4.6 nM.
Consider `COc1nc(N[C@@H]2CN(C3(C#N)COC3)C[C@@H]2F)nn2ccc(-c3ccc4nnn(CC(F)F)c4c3)c12` [Compound 741, 3-((3R,4S)-3-((5-(1-(2,2-Difluoroethyl)-1H-benzo[d][1,2,3]triazol-6-yl)-4-methoxypyrrolo[2,1-f][1,2,4]triazin-2-yl)amino)-4-fluoropyrrolidin-1-yl)oxetane-3-carbonitrile], for which the IC50 is 1.2 nM.
As to `COc1nc(NC2CCN(C3COC3)CC2)nn2ccc(-c3ccc4nnn(CC(F)F)c4c3)c12` [Compound 750, 5-(1-(2,2-Difluoroethyl)-1H-benzo[d][1,2,3]triazol-6-yl)-4-methoxy-N-(1-(oxetan-3-yl)piperidin-4-yl)pyrrolo[2,1-f][1,2,4]triazin-2-amine], the IC50 worked out at 0.3 nM.
With `COc1nc(N[C@H]2CCN(C)C[C@H]2F)nn2ccc(-c3ccc4nnn(CC(F)F)c4c3)c12` [Compound 754, 5-(1-(2,2-Difluoroethyl)-1H-benzo[d][1,2,3]triazol-6-yl)-N-((3R,4S)-3-fluoro-1-methylpiperidin-4-yl)-4-methoxypyrrolo[2,1-f][1,2,4]triazin-2-amine], the IC50 is 1.7 nM.
As for `CCN1CC[C@H](Nc2nc(OC)c3c(-c4ccc5nnn(CC(F)F)c5c4)ccn3n2)[C@H](F)C1` [Compound 755, 5-(1-(2,2-Difluoroethyl)-1H-benzo[d][1,2,3]triazol-6-yl)-N-((3R,4S)-1-ethyl-3-fluoropiperidin-4-yl)-4-methoxypyrrolo[2,1-f][1,2,4]triazin-2-amine], the IC50 stood at 2.3 nM.
Next, `COc1nc(N[C@H]2CCN(CCO)C[C@H]2F)nn2ccc(-c3ccc4nnn(CC(F)F)c4c3)c12` [Compound 756, 2-((3R,4S)-4-((5-(1-(2,2-Difluoroethyl)-1H-benzo[d][1,2,3]triazol-6-yl)-4-methoxypyrrolo[2,1-f][1,2,4]triazin-2-yl)amino)-3-fluoropiperidin-1-yl)ethan-1-ol]: 1.4 nM; `COc1nc(N[C@H]2CCN(CC(C)(C)C#N)C[C@H]2F)nn2ccc(-c3ccc4nnn(CC(F)F)c4c3)c12` [Compound 757, 3-((3R,4S)-4-((5-(1-(2,2-Difluoroethyl)-1H-benzo[d][1,2,3]triazol-6-yl)-4-methoxypyrrolo[2,1-f][1,2,4]triazin-2-yl)amino)-3-fluoropiperidin-1-yl)-2,2-dimethylpropanenitrile]: 36.7 nM; `COc1nc(N[C@H]2CCN(CC(C)(C)O)C[C@H]2F)nn2ccc(-c3ccc4nnn(CC(F)F)c4c3)c12` [Compound 758, 1-((3R,4S)-4-((5-(1-(2,2-Difluoroethyl)-1H-benzo[d][1,2,3]triazol-6-yl)-4-methoxypyrrolo[2,1-f][1,2,4]triazin-2-yl)amino)-3-fluoropiperidin-1-yl)-2-methylpropan-2-ol]: 1.1 nM.
As for `COc1nc(N[C@@H]2CCN(C3COC3)C[C@@H]2F)nn2ccc(-c3ccc4nnn(CC(F)F)c4c3)c12` [Compound 761, 5-(1-(2,2-Difluoroethyl)-1H-benzo[d][1,2,3]triazol-6-yl)-N-((3S,4R)-3-fluoro-1-(oxetan-3-yl)piperidin-4-yl)-4-methoxypyrrolo[2,1-f][1,2,4]triazin-2-amine], the figure is 1.7 nM; as for `COc1nc(N[C@H]2CCN(C3COC3)C[C@H]2F)nn2ccc(-c3ccc4nnn(CC(F)F)c4c3)c12` [Compound 762, 5-(1-(2,2-Difluoroethyl)-1H-benzo[d][1,2,3]triazol-6-yl)-N-((3R,4S)-3-fluoro-1-(oxetan-3-yl)piperidin-4-yl)-4-methoxypyrrolo[2,1-f][1,2,4]triazin-2-amine], 1.3 nM; as for `COc1nc(N[C@H]2CCN(C3(C)COC3)C[C@H]2F)nn2ccc(-c3ccc4nnn(CC(F)F)c4c3)c12` [Compound 764, 5-(1-(2,2-difluoroethyl)-1H-benzo[d][1,2,3]triazol-6-yl)-N-((3R,4S)-3-fluoro-1-(3-methyloxetan-3-yl)piperidin-4-yl)-4-methoxypyrrolo[2,1-f][1,2,4]triazin-2-amine], 0.4 nM.
As for `COc1nc(N[C@H]2CCN(C3(C#N)COC3)C[C@H]2F)nn2ccc(-c3ccc4nnn(CC(F)F)c4c3)c12` [Compound 769, 3-((3R,4S)-4-((5-(1-(2,2-Difluoroethyl)-1H-benzo[d][1,2,3]triazol-6-yl)-4-methoxypyrrolo[2,1-f][1,2,4]triazin-2-yl)amino)-3-fluoropiperidin-1-yl)oxetane-3-carbonitrile], the figure is 2.9 nM; as for `COc1nc(N[C@@H]2CCN(C(C)=O)C[C@@H]2F)nn2ccc(-c3ccc4nnn(CC(F)F)c4c3)c12` [Compound 770, 1-((3S,4R)-4-((5-(1-(2,2-Difluoroethyl)-1H-benzo[d][1,2,3]triazol-6-yl)-4-methoxypyrrolo[2,1-f][1,2,4]triazin-2-yl)amino)-3-fluoropiperidin-1-yl)ethan-1-one], 1.5 nM; as for `COc1nc(N[C@H]2CCN(C(C)=O)C[C@H]2F)nn2ccc(-c3ccc4nnn(CC(F)F)c4c3)c12` [Compound 771, 1-((3R,4S)-4-((5-(1-(2,2-Difluoroethyl)-1H-benzo[d][1,2,3]triazol-6-yl)-4-methoxypyrrolo[2,1-f][1,2,4]triazin-2-yl)amino)-3-fluoropiperidin-1-yl)ethan-1-one], 0.1 nM.
Take `CCC(=O)N1CC[C@@H](Nc2nc(OC)c3c(-c4ccc5nnn(CC(F)F)c5c4)ccn3n2)[C@@H](F)C1` [Compound 772, 1-((3S,4R)-4-((5-(1-(2,2-Difluoroethyl)-1H-benzo[d][1,2,3]triazol-6-yl)-4-methoxypyrrolo[2,14][1,2,4]triazin-2-yl)amino)-3-fluoropiperidin-1-yl)propan-1-one]: the IC50 was determined as 2 nM.
Next, `CCC(=O)N1CC[C@H](Nc2nc(OC)c3c(-c4ccc5nnn(CC(F)F)c5c4)ccn3n2)[C@H](F)C1` [Compound 773, 1-((3R,4S)-4-((5-(1-(2,2-Difluoroethyl)-1H-benzo[d][1,2,3]triazol-6-yl)-4-methoxypyrrolo[2,1-f][1,2,4]triazin-2-yl)amino)-3-fluoropiperidin-1-yl)propan-1-one]: 0.7 nM; `COc1nc(N[C@H]2CCN(C(=O)C3(C#N)CC3)C[C@H]2F)nn2ccc(-c3ccc4nnn(CC(F)F)c4c3)c12` [Compound 776, 1-((3R,4S)-4-((5-(1-(2,2-Difluoroethyl)-1H-benzo[d][1,2,3]triazol-6-yl)-4-methoxypyrrolo[2,1-f][1,2,4]triazin-2-yl)amino)-3-fluoropiperidine-1-carbonyl)cyclopropane-1-carbonitrile]: 0.5 nM.
With `COc1nc(N[C@@H]2CCN(C)CC2(F)F)nn2ccc(-c3ccc4nnn(CC(F)F)c4c3)c12` [Compound 777, (R)—N-(3,3-Difluoro-1-methylpiperidin-4-yl)-5-(1-(2,2-difluoroethyl)-1H-benzo[d][1,2,3]triazol-6-yl)-4-methoxypyrrolo[2,1-f][1,2,4]triazin-2-amine], the IC50 stood at 1.6 nM.
